Results taken from US20150105252A1, “SUBSTITUTED PYRAZOLES AS HERBICIDES” (E I DU PONT DE NEMOURS AND COMPANY, priority 2013, published 2015).

How the values were obtained:
[1] = system: kochia; test: Test D preemergence; format: in vivo, Kochia scoparia; details: scale 0 to 100
Summary of the method: (§1)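 Postemergence activity was tested on plants at the 1- to 4-leaf stage (2–18 cm) grown in peat-based medium, and preemergence activity on seeds in silt loam, with chemicals in a surfactant-containing non-phytotoxic solvent. Controlled-environment growth lasted 14–21 days before visual 0–100 scoring.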

[2] = system: pigweed; test: Test D preemergence; format: in vivo, Amaranthus retroflexus; details: scale 0 to 100
Summary of the method: as §1

[3] = system: barley, spring; test: Test D preemergence; format: in vivo, Hordeum vulgare; details: scale 0 to 100
Summary of the method: as §1

[4] = system: barley, winter; test: Test D preemergence; format: in vivo, Hordeum vulgare; details: scale 0 to 100
Summary of the method: as §1

[5] = system: buckwheat, wild; test: Test D preemergence; format: in vivo, Polygonum convolvulus; details: scale 0 to 100
Summary of the method: as §1

[6] = system: chickweed; test: Test D postemergence; format: in vivo, Stellaria media; details: scale 0 to 100
Summary of the method: as §1

[7] = system: galium; test: Test D postemergence; format: in vivo, Galium aparine; details: scale 0 to 100
Summary of the method: as §1

[8] = system: bromegrass, downy; test: Test D postemergence; format: in vivo, Bromus tectorum; details: scale 0 to 100
Summary of the method: as §1

[9] = system: windgrass; test: Test D postemergence; format: in vivo, Apera spica-venti; details: scale 0 to 100
Summary of the method: as §1

[10] = system: common ragweed; test: Test F preemergence; format: in vivo, Ambrosia elation
Summary of the method: (§2)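 Percent-control style visual scores, from 0 (no effect) to 100 (complete control), were given relative to controls. Treatment timing: preemergence on silt loam plantings, or postemergence at 1- to 4-leaf stage. Evaluation came 14 to 21 days after spraying, greenhouse conditions.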

[11] = system: arrowleaf sida; test: Test F preemergence; format: in vivo, Sida rhombifolia
Summary of the method: as §2

[12] = system: nightshade; test: Test F preemergence; format: in vivo, Solanum ptycanthum
Summary of the method: as §2

[13] = system: kochia; test: Test F preemergence; format: in vivo, Kochia scoparia
Summary of the method: as §2

[14] = system: hairy beggarticks; test: Test F preemergence; format: in vivo, Bidens pilosa
Summary of the method: as §2

[15] = Preemergence, 62 g ai/ha, scale 0 to 100
[16] = Preemergence, 125 g ai/ha, scale 0 to 100
[17] = preemergence, 8 g ai/ha, scale 0 to 100, 100 is complete control
[18] = preemergence, 16 g ai/ha, scale 0 to 100, 100 is complete control
[19] = Preemergence, 31 g ai/ha, scale 0 to 100
[20] = Preemergence, 16 g ai/ha, scale 0 to 100

Compound: CCCc1cc(C(=O)NCC(F)(F)F)nn1Cc1ccnc(C(F)(F)F)c1 [Compound 105]
- Plant response rating, Kochia ([1]; 31 g ai/ha): 95
- Plant response rating, Kochia ([1]; 62 g ai/ha): 100
- Plant response rating, Kochia ([1]; 125 g ai/ha): 100
- Plant response rating, Kochia ([1]; 250 g ai/ha): 100
- Plant response rating, Pigweed ([2]; 31 g ai/ha): 100
- Plant response rating, Pigweed ([2]; 62 g ai/ha): 100
- Plant response rating, Pigweed ([2]; 125 g ai/ha): 100
- Plant response rating, Pigweed ([2]; 250 g ai/ha): 100
- Plant response rating, Barley, Spring ([3]; 31 g ai/ha): 15
- Plant response rating, Barley, Spring ([3]; 62 g ai/ha): 40
- Plant response rating, Barley, Spring ([3]; 125 g ai/ha): 65
- Plant response rating, Barley, Spring ([3]; 250 g ai/ha): 85
- Plant response rating, Barley, Winter ([4]; 31 g ai/ha): 5
- Plant response rating, Barley, Winter ([4]; 62 g ai/ha): 40
- Plant response rating, Barley, Winter ([4]; 125 g ai/ha): 70
- Plant response rating, Barley, Winter ([4]; 250 g ai/ha): 95
- Plant response rating, Buckwheat, Wild ([5]; 31 g ai/ha): 85
- Plant response rating, Buckwheat, Wild ([5]; 62 g ai/ha): 90
- Plant response rating, Buckwheat, Wild ([5]; 125 g ai/ha): 95
- Plant response rating, Buckwheat, Wild ([5]; 250 g ai/ha): 100
- Chickweed plant response rating ([6]; Postemergence, 31 g ai/ha): 20
- Chickweed plant response rating ([6]; Postemergence, 125 g ai/ha): 70
- Chickweed plant response rating ([6]; Postemergence, 250 g ai/ha): 80
- Chickweed plant response rating ([6]; postemergence, 62 g ai/ha): 55
- Galium plant response rating ([7]; Postemergence, 31 g ai/ha): 70
- Galium plant response rating ([7]; Postemergence, 125 g ai/ha): 80
- Galium plant response rating ([7]; Postemergence, 250 g ai/ha): 85
- Galium plant response rating ([7]; postemergence, 62 g ai/ha): 75
- Bromegrass, Downy plant response rating ([8]; Postemergence, 31 g ai/ha): 10
- Bromegrass, Downy plant response rating ([8]; Postemergence, 125 g ai/ha): 20
- Bromegrass, Downy plant response rating ([8]; Postemergence, 250 g ai/ha): 30
- Bromegrass, Downy plant response rating ([8]; postemergence, 62 g ai/ha): 15
- Windgrass plant response rating ([9]; Postemergence, 31 g ai/ha): 15
- Windgrass plant response rating ([9]; Postemergence, 125 g ai/ha): 40
- Windgrass plant response rating ([9]; Postemergence, 250 g ai/ha): 70
- Windgrass plant response rating ([9]; postemergence, 62 g ai/ha): 25
- Plant response rating, Common Ragweed [10, 15]: 35
- Plant response rating, Common Ragweed [10, 16]: 100
- Plant response rating, Common Ragweed [10, 17]: 0
- Plant response rating, Common Ragweed [10, 18]: 0
- Plant response rating, Arrowleaf Sida [11, 19]: 0
- Plant response rating, Arrowleaf Sida [11, 15]: 0
- Plant response rating, Arrowleaf Sida [11, 16]: 15
- Plant response rating, Arrowleaf Sida [11, 17]: 0
- Plant response rating, Arrowleaf Sida [11, 18]: 0
- Plant response rating, Nightshade [12, 19]: 70
- Plant response rating, Nightshade [12, 15]: 100
- Plant response rating, Nightshade [12, 16]: 100
- Plant response rating, Nightshade [12, 17]: 0
- Plant response rating, Nightshade [12, 18]: 65
- Plant response rating, Kochia [13, 19]: 100
- Plant response rating, Kochia [13, 15]: 100
- Plant response rating, Kochia [13, 16]: 100
- Plant response rating, Kochia [13, 17]: 0
- Plant response rating, Kochia [13, 18]: 80
- Plant response rating, Hairy Beggarticks [14, 19]: 0
- Plant response rating, Hairy Beggarticks [14, 15]: 20
- Plant response rating, Hairy Beggarticks [14, 16]: 40
- Plant response rating, Hairy Beggarticks [14, 17]: 0
- Plant response rating, Hairy Beggarticks [14, 18]: 0

Compound: CCOc1cc(C(=O)NC(C)C)nn1Cc1ccnc(C(F)(F)F)c1 [Compound 188]
- Plant response rating, Kochia ([1]; 62 g ai/ha): 100
- Plant response rating, Kochia ([1]; 125 g ai/ha): 100
- Plant response rating, Kochia ([1]; 250 g ai/ha): 100
- Plant response rating, Pigweed ([2]; 62 g ai/ha): 100
- Plant response rating, Pigweed ([2]; 125 g ai/ha): 100
- Plant response rating, Pigweed ([2]; 250 g ai/ha): 100
- Plant response rating, Barley, Spring ([3]; 31 g ai/ha): 65
- Plant response rating, Barley, Spring ([3]; 62 g ai/ha): 75
- Plant response rating, Barley, Spring ([3]; 125 g ai/ha): 85
- Plant response rating, Barley, Spring ([3]; 250 g ai/ha): 95
- Plant response rating, Barley, Winter ([4]; 31 g ai/ha): 35
- Plant response rating, Barley, Winter ([4]; 62 g ai/ha): 70
- Plant response rating, Barley, Winter ([4]; 125 g ai/ha): 80
- Plant response rating, Barley, Winter ([4]; 250 g ai/ha): 100
- Plant response rating, Buckwheat, Wild ([5]; 31 g ai/ha): 100
- Plant response rating, Buckwheat, Wild ([5]; 62 g ai/ha): 100
- Plant response rating, Buckwheat, Wild ([5]; 125 g ai/ha): 100
- Plant response rating, Buckwheat, Wild ([5]; 250 g ai/ha): 100
- Chickweed plant response rating ([6]; Postemergence, 31 g ai/ha): 65
- Chickweed plant response rating ([6]; Postemergence, 125 g ai/ha): 75
- Chickweed plant response rating ([6]; Postemergence, 250 g ai/ha): 95
- Chickweed plant response rating ([6]; postemergence, 62 g ai/ha): 65
- Galium plant response rating ([7]; Postemergence, 31 g ai/ha): 75
- Galium plant response rating ([7]; Postemergence, 125 g ai/ha): 85
- Galium plant response rating ([7]; Postemergence, 250 g ai/ha): 90
- Galium plant response rating ([7]; postemergence, 62 g ai/ha): 75
- Bromegrass, Downy plant response rating ([8]; Postemergence, 31 g ai/ha): 15
- Bromegrass, Downy plant response rating ([8]; Postemergence, 125 g ai/ha): 15
- Bromegrass, Downy plant response rating ([8]; Postemergence, 250 g ai/ha): 20
- Bromegrass, Downy plant response rating ([8]; postemergence, 62 g ai/ha): 15
- Windgrass plant response rating ([9]; Postemergence, 31 g ai/ha): 20
- Windgrass plant response rating ([9]; Postemergence, 125 g ai/ha): 35
- Windgrass plant response rating ([9]; Postemergence, 250 g ai/ha): 45
- Windgrass plant response rating ([9]; postemergence, 62 g ai/ha): 20
- Plant response rating, Common Ragweed [10, 20]: 30
- Plant response rating, Common Ragweed [10, 15]: 90
- Plant response rating, Common Ragweed [10, 16]: 90
- Plant response rating, Common Ragweed [10, 17]: 0
- Plant response rating, Arrowleaf Sida [11, 20]: 0
- Plant response rating, Arrowleaf Sida [11, 15]: 10
- Plant response rating, Arrowleaf Sida [11, 16]: 20
- Plant response rating, Arrowleaf Sida [11, 17]: 0
- Plant response rating, Nightshade [12, 20]: 98
- Plant response rating, Nightshade [12, 15]: 95
- Plant response rating, Nightshade [12, 16]: 98
- Plant response rating, Nightshade [12, 17]: 0
- Plant response rating, Kochia [13, 15]: 98
- Plant response rating, Kochia [13, 16]: 100
- Plant response rating, Kochia [13, 17]: 0
- Plant response rating, Hairy Beggarticks [14, 15]: 0
- Plant response rating, Hairy Beggarticks [14, 16]: 0
- Plant response rating, Hairy Beggarticks [14, 17]: 0
